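Tested at 5 concentrations; 48 h exposure; 96-well plates; endpoints linearly interpolated, else capped at highest concentration. At the GI50, growth is halved.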 Active and inactive are the calls of the source. Cut-off read from the data, not from the text of the source: active = GI50 up to about 1.1 µM and inactive = higher.
Legend:
Assay in all cases: growth of human tumour cells (NCI), 48 h
786-0 = test system: 786-0
A549 = test system: A549
ACHN = test system: ACHN
BT-549 = test system: BT-549
CAKI-1 = test system: CAKI-1
CCRF-CEM = test system: CCRF-CEM
COLO 205 = test system: COLO 205
DU-145 = test system: DU-145
EKVX = test system: EKVX
HCT-116 = test system: HCT-116
HCT-15 = test system: HCT-15
HL-60 = test system: HL-60
HOP-62 = test system: HOP-62
HT-29 = test system: HT-29
Hs-578T = test system: Hs-578T
IGROV-1 = test system: IGROV-1
K562 = test system: K562
KM12 = test system: KM12
LOX IMVI = test system: LOX IMVI
M14 = test system: M14
MCF7 = test system: MCF7
MDA-MB-231 = test system: MDA-MB-231
MDA-MB-435 = test system: MDA-MB-435
MDA-N = test system: MDA-N
MOLT-4 = test system: MOLT-4
Malme-3M = test system: Malme-3M
NCI-H226 = test system: NCI-H226
NCI-H23 = test system: NCI-H23
NCI-H460 = test system: NCI-H460
NCI-H522 = test system: NCI-H522
NCI/ADR-RES = test system: NCI/ADR-RES
OVCAR-3 = test system: OVCAR-3
OVCAR-4 = test system: OVCAR-4
OVCAR-5 = test system: OVCAR-5
OVCAR-8 = test system: OVCAR-8
PC-3 = test system: PC-3
RPMI-8226 = test system: RPMI-8226
SF-268 = test system: SF-268
SF-295 = test system: SF-295
SF-539 = test system: SF-539
SK-MEL-28 = test system: SK-MEL-28
SK-MEL-2 = test system: SK-MEL-2
SK-MEL-5 = test system: SK-MEL-5
SK-OV-3 = test system: SK-OV-3
SN12C = test system: SN12C
SNB-19 = test system: SNB-19
SNB-75 = test system: SNB-75
SR = test system: SR
SW-620 = test system: SW-620
T47D = test system: T47D
TK-10 = test system: TK-10
U-251 = test system: U-251
UACC-257 = test system: UACC-257
UACC-62 = test system: UACC-62
UO-31 = test system: UO-31
A498 = test system: A498
HOP-92 = test system: HOP-92
RXF 393 = test system: RXF 393

CC(=O)N(C)CCc1c[nH]c2ccccc12
GI50 (786-0): > 100 µM (inactive)
GI50 (A549): > 100 µM (inactive)
GI50 (ACHN): > 100 µM (inactive)
GI50 (BT-549): > 100 µM (inactive)
GI50 (CAKI-1): > 100 µM (inactive)
GI50 (CCRF-CEM): > 100 µM (inactive)
GI50 (COLO 205): > 100 µM (inactive)
GI50 (DU-145): > 100 µM (inactive)
GI50 (EKVX): > 100 µM (inactive)
GI50 (HCT-116): > 100 µM (inactive)
GI50 (HCT-15): > 100 µM
GI50 (HL-60): > 100 µM (inactive)
GI50 (HOP-62): > 100 µM (inactive)
GI50 (HT-29): > 100 µM (inactive)
GI50 (Hs-578T): > 100 µM (inactive)
GI50 (IGROV-1): > 100 µM (inactive)
GI50 (K562): > 100 µM (inactive)
GI50 (KM12): > 100 µM (inactive)
GI50 (LOX IMVI): > 100 µM (inactive)
GI50 (M14): > 100 µM (inactive)
GI50 (MCF7): > 100 µM (inactive)
GI50 (MDA-MB-231): > 100 µM (inactive)
GI50 (MDA-MB-435): > 100 µM (inactive)
GI50 (MDA-N): > 100 µM (inactive)
GI50 (MOLT-4): > 100 µM (inactive)
GI50 (Malme-3M): > 100 µM (inactive)
GI50 (NCI-H226): > 100 µM (inactive)
GI50 (NCI-H23): > 100 µM (inactive)
GI50 (NCI-H460): > 100 µM (inactive)
GI50 (NCI-H522): > 100 µM (inactive)
GI50 (NCI/ADR-RES): > 100 µM (inactive)
GI50 (OVCAR-3): > 100 µM (inactive)
GI50 (OVCAR-4): > 100 µM (inactive)
GI50 (OVCAR-5): > 100 µM (inactive)
GI50 (OVCAR-8): > 100 µM (inactive)
GI50 (PC-3): > 100 µM (inactive)
GI50 (RPMI-8226): > 100 µM (inactive)
GI50 (SF-268): > 100 µM (inactive)
GI50 (SF-295): > 100 µM (inactive)
GI50 (SF-539): > 100 µM (inactive)
GI50 (SK-MEL-28): > 100 µM (inactive)
GI50 (SK-MEL-2): > 100 µM (inactive)
GI50 (SK-MEL-5): > 100 µM (inactive)
GI50 (SK-OV-3): > 100 µM (inactive)
GI50 (SN12C): > 100 µM (inactive)
GI50 (SNB-19): > 100 µM (inactive)
GI50 (SNB-75): > 100 µM (inactive)
GI50 (SR): > 100 µM (inactive)
GI50 (SW-620): > 100 µM (inactive)
GI50 (T47D): > 100 µM (inactive)
GI50 (TK-10): > 100 µM (inactive)
GI50 (U-251): > 100 µM (inactive)
GI50 (UACC-257): > 100 µM (inactive)
GI50 (UACC-62): > 100 µM (inactive)
GI50 (UO-31): > 100 µM (inactive)

C1CC2CN(CCCN3CCOCC3)C(C1)O2 (stereo unspecified)
GI50 (786-0): > 100 µM (inactive)
GI50 (A498): > 100 µM (inactive)
GI50 (A549): > 100 µM (inactive)
GI50 (ACHN): > 100 µM (inactive)
GI50 (BT-549): > 100 µM (inactive)
GI50 (CAKI-1): > 100 µM (inactive)
GI50 (COLO 205): > 100 µM (inactive)
GI50 (DU-145): > 100 µM (inactive)
GI50 (EKVX): > 100 µM (inactive)
GI50 (HCT-116): > 100 µM (inactive)
GI50 (HCT-15): > 100 µM
GI50 (HL-60): > 100 µM (inactive)
GI50 (HOP-62): > 100 µM (inactive)
GI50 (HOP-92): > 100 µM (inactive)
GI50 (HT-29): > 100 µM (inactive)
GI50 (Hs-578T): > 100 µM (inactive)
GI50 (IGROV-1): > 100 µM (inactive)
GI50 (K562): > 100 µM (inactive)
GI50 (KM12): > 100 µM (inactive)
GI50 (LOX IMVI): > 100 µM (inactive)
GI50 (M14): > 100 µM (inactive)
GI50 (MCF7): > 100 µM (inactive)
GI50 (MDA-MB-231): > 100 µM (inactive)
GI50 (MDA-MB-435): > 100 µM (inactive)
GI50 (MDA-N): > 100 µM (inactive)
GI50 (MOLT-4): > 100 µM (inactive)
GI50 (Malme-3M): > 100 µM (inactive)
GI50 (NCI-H226): > 100 µM (inactive)
GI50 (NCI-H23): > 100 µM (inactive)
GI50 (NCI-H460): > 100 µM (inactive)
GI50 (NCI-H522): > 100 µM (inactive)
GI50 (NCI/ADR-RES): > 100 µM (inactive)
GI50 (OVCAR-3): > 100 µM (inactive)
GI50 (OVCAR-4): > 100 µM (inactive)
GI50 (OVCAR-5): > 100 µM (inactive)
GI50 (OVCAR-8): > 100 µM (inactive)
GI50 (PC-3): > 100 µM (inactive)
GI50 (RPMI-8226): > 100 µM (inactive)
GI50 (RXF 393): > 100 µM (inactive)
GI50 (SF-268): > 100 µM (inactive)
GI50 (SF-295): > 100 µM (inactive)
GI50 (SF-539): > 100 µM (inactive)
GI50 (SK-MEL-28): > 100 µM (inactive)
GI50 (SK-MEL-2): > 100 µM (inactive)
GI50 (SK-MEL-5): > 100 µM (inactive)
GI50 (SK-OV-3): > 100 µM (inactive)
GI50 (SN12C): > 100 µM (inactive)
GI50 (SNB-19): > 100 µM (inactive)
GI50 (SNB-75): > 100 µM (inactive)
GI50 (SW-620): > 100 µM (inactive)
GI50 (T47D): > 100 µM (inactive)
GI50 (TK-10): > 100 µM (inactive)
GI50 (U-251): > 100 µM (inactive)
GI50 (UACC-257): > 100 µM (inactive)
GI50 (UACC-62): > 100 µM (inactive)
GI50 (UO-31): > 100 µM (inactive)
